# Test results taken from publication PMC7145549, “A general strategy exploiting m^5C duplex-remodelling effect for selective detection of RNA and DNA m^5C methyltransferase activity in cells” (Nucleic Acids Research, 2019).
# Entries after “also recorded” stand apart in the source; their conditions may differ. Read-outs that look alike come from different tables or passages of the source.
# Tests used:
# NSUN2 [1] = target: T1, NSUN2 (Homo sapiens, UniProt Q08J23); assay: Cell-based m5C-probe methyltransferase assay (flow cytometry, probe 9a)
# T1 sequence (Q08J23 whole entry): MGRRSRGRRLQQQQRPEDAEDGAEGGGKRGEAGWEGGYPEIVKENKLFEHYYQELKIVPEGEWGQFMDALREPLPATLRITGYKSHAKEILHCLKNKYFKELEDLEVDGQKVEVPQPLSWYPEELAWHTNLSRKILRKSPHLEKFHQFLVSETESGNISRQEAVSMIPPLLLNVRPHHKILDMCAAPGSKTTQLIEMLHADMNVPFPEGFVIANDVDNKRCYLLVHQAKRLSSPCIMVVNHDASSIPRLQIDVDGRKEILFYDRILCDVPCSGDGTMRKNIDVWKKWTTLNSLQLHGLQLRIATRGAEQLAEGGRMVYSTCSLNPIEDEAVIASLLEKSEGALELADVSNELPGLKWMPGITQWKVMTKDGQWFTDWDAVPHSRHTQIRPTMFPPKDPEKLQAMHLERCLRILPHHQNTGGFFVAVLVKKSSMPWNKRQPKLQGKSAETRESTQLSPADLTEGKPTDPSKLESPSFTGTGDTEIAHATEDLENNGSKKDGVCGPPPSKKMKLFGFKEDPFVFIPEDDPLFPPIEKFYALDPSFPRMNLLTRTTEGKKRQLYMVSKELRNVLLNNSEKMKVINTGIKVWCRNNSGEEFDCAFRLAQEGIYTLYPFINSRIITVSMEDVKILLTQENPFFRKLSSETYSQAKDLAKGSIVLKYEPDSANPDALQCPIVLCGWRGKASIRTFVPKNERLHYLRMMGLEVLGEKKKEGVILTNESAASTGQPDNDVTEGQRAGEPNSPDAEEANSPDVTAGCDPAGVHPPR
# Procedure: The HeLa cells were pre-incubation with various concentrations of non-specific MTase inhibitors, including sinefungin, S-adenosyl-L-homocysteine (SAH), adenosine, and homocysteine at 37°C for 30 min. Nine different concentrations of inhibitors were used (0.1, 0.3, 1, 3, 10, 50, 100, 250, 1000 μM) and the final DMSO concentration was kept at less than 1% (v/v) of the assay mix. […] This was followed by the delivery of either the m^5C-probe 9a (10 μM) or control probe 10a (10 μM) into the cells via Lipofectamine 2000. Aliquots were then collected for flow cytometry measurements (λex 355 nm; λem 425–475 nm) at the indicated time points. The mean fluorescence intensity of at least 20 000 live cells was determined. IC50 determination: the IC50 values were then calculated from the variation in fluorescence at different inhibitor concentrations using nonlinear regression, with normalised dose-response fit on GraphPad Prism 6.0™. The assay was performed in triplicate for each inhibitor concentration. Z’ factor determination: the Z’ factor for our m^5C-probe assay was calculated using previously described method ([55]). For details, see Supplementary Data. […]
# Cell-based m5C-probe methyltransferase assay
# The HeLa cells were pre-incubation with various concentrations of DNA/RNA MTase inhibitors, including sinefungin, S-adenosyl-L-homocysteine (SAH), adenosine, and homocysteine at 37 °C for […]
# and the final DMSO concentration was kept at less than 1% v/v of the assay mix. These concentrations […]
# by the delivery of either the m5C-probe 9a (10 μM) or control probe 10a (10 μM) into the cells via Lipofectamine 2000, as described above. Aliquots were then collected for flow cytometry measurements (λex 355 nm; λem 425-475 nm) at the indicated time points. The mean fluorescence intensity of at least 20,000 live cells was determined.
# For IC50 determination: the IC50 value were then calculated from the variation in fluorescence at different inhibitor concentrations using nonlinear regression, with normalised dose-response fit on GraphPad Prism 6.0™. The assay was performed in triplicate for each inhibitor concentration.
# For the determination of Z’ factor: the Z’ factor for our m5C-probe assay was calculated using the method described by Zhang et al.17 A total of 40 independent assays were run with either sinefungin (1 mM; positive control) or DMSO (1% v/v; negative control). The Z’ factor was then calculated using […]
# Where µp and µn are the means of the positive (p) and negative (n) controls σp and σn are the standard deviations of the positive (p) and negative (n) controls.
# [2] = CD conformational analysis at a range of MgCl2 concentrations; assay type: physicochemical; conditions: 25°C, pH 7.4, 150 mM NaCl, MgCl2 0-300 mM
# Procedure: Circular dichroism (CD) spectroscopy
# The CD spectra for the duplexes were obtained using a JASCO J-810 spectropolarimeter, as previously described.4 Measurements were carried out at 25 °C with 5 μM probes in a 10 mM sodium phosphate buffer (pH 7.4) containing 150 mM NaCl, and varying MgCl2 concentrations (0, 5, 10, 20, 100, and 300 mM). The concentrations were determined by UV absorbance at 260 nm (A260) using a NanoDrop ND-1000 UV-Visible Spectrophotometer. The oligo solutions were first heated to 90 °C for 5 min, and re-annealed by slow cooling to 4 °C at a rate of 1 °C/min. CD spectra were then recorded in quartz cuvettes (path length 1 mm, 400 μL) from 220 nm to 330 nm at 25 °C using a 10 nm/min scan speed, a spectral band width of 1 nm and a time constant of 4 s. All the spectra were subtracted with the buffer blank and smoothed using the Savitsky-Golay algorithm (polynomial order 10). […]
# [3] = UV-based thermal denaturation / thermodynamic analysis; assay type: physicochemical; conditions: for increase in duplex stability on m5C methylation (ΔΔG°310): methylated vs unmethylated duplex
# Procedure: UV-based thermal denaturation experiments
# The melting of each duplex (1a, 1b, 7a, 7b, 11a and 11b) was performed on a Cary 300 UV-Visible Spectrophotometer (Varian) at a total strand concentration of 5 μM (unless otherwise stated) in 10 mM sodium phosphate buffer (pH 7.4), 150 mM NaCl and 20 mM MgCl2. Absorbance versus temperature profiles were recorded at 260 nm. The samples were first denatured by heating to 95 °C at 10 °C/min, followed by slow cooling to 25 °C at 0.4 °C/min to ensure a complete annealing of the strands. The melting transitions were then monitored by heating to 95 °C at 0.4 °C/min. To increase the accuracy of measurements, the sixth position was used to record the temperature data points by placing a temperature probe directly in the cuvette. Each oligo was measured at seven different concentrations (1, 2, 5, 10, 15, 20 and 30 μM), and a total of six independent melting transitions were measured for each concentration. The Tm values were determined by the Varian Cary Software using the baseline (alpha) method, which is defined as the point when the mole fraction of duplex was equal to 0.5. The melting transitions were generally found to be reproducible for all oligos studied.
# DNMT3A = target: T2, DNMT3A (Homo sapiens, UniProt Q9Y6K1); assay: In vitro DNMT3A inhibition assay with DNA m5C-probe 11a; assay type: biochemical; conditions: probe 11a 5 μM, DNMT3A 0.5 μM, 30 min; read-out: IC50 against DNMT3A
# T2 construct: Full-length human DNMT3A protein containing N-terminal His-DDDDK tag was purchased from; His-DDDDK (N); purchased abcam plc; UK ab170408
# T2 sequence (Q9Y6K1 whole entry, looked up): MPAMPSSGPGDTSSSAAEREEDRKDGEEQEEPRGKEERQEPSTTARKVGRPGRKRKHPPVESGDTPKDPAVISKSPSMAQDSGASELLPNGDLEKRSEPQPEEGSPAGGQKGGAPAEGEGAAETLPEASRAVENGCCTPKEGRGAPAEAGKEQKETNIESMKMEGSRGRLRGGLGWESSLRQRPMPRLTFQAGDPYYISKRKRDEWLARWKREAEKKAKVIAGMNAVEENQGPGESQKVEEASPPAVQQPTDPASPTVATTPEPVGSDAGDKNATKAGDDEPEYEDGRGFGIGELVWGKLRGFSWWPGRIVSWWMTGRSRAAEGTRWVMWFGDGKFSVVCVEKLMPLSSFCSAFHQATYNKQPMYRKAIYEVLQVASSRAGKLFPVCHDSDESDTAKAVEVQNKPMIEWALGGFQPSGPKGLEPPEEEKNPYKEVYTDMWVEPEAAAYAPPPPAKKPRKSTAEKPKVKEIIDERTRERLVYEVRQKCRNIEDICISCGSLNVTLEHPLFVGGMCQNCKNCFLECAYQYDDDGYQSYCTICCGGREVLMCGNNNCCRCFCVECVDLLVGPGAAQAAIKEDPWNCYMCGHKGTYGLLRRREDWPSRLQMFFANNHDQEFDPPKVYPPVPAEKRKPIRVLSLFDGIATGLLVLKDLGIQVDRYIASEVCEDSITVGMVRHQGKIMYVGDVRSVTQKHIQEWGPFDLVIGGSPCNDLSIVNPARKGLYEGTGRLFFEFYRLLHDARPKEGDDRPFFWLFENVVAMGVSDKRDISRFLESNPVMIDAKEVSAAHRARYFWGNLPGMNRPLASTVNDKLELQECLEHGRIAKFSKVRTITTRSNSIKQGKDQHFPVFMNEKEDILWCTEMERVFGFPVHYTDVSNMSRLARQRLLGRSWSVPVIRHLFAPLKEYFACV
# Procedure: (§1) RNA methyltransferase assay: the assay was performed at 37°C in triplicate in a Corning Costar 96-well flat bottom black plate. Reaction consisted of enzyme (0.5 μM), methyl donor S-adenosyl-L-methionine (SAM; 200 μM), m^5C-probe 9a (substrate; 5 μM) or locked-probe 10a (control; 5 μM) in a 50 mM HEPES buffer (pH 7.4) containing 150 mM NaCl and 20 mM MgCl2. The final reaction volume is 25 μl. The time course of fluorescence activation was recorded immediately after the addition of enzyme with a Tecan ultra microplate reader (λex 360 nm; λem 465 nm). An average of five scans was recorded. DNA methyltransferase assay: the assay was performed as described above. Reaction consisted of enzyme (NSUN2 or DNMT3A; 0.5 μM), methyl donor S-adenosyl-L-methionine (SAM; 200 μM), DNA m^5C-probe 11a (substrate; 5 μM) in a 50 mM HEPES buffer (pH 7.4) containing 150 mM NaCl and 20 mM MgCl2. The fluorescence of the reaction was monitored at λem 400 nm (λex 340 nm).
# Importantly, m^5C-probe 11a may also be applied to the inhibition study of DNMT3A. […] Work is currently underway to explore the possibility of employing both probes concurrently for the simultaneous detection of RNA and DNA m^5C MTase activity.
# NSUN2 [4] = target: T1, NSUN2; assay: In vitro m5C-probe fluorescence RNA methyltransferase assay; assay type: biochemical; set-up: Full-length human NSUN2 (containing C-terminal MYC/DDK tag; TP314459); MYC/DDK (C); purchased Origene Technologies Inc., USA TP314459; conditions: inhibitor 10 μM, probe 9a 5 μM, NSUN2 0.5 μM
# Procedure: as §1
# We next examined whether m^5C-probe 9a could function as fluorogenic substrate for RNA:m^5C MTase by testing it against NSUN2, which is of particular interest in light of emerging evidence linking NSUN2 with m^5C methylation of human mRNA ([14]) and its association with human cancers ([25–29]). […] The formation of methylated probe was measured by an increase in fluorescence signal at 465 nm (λex 360 nm).
# [5] = Fluorescence emission and quantum yield analysis of probes; assay type: physicochemical; conditions: in MeOH, reference standard, authors' conditions
# Procedure: Fluorescence analysis was performed using a Cary Eclipse fluorescence spectrophotometer, as previously reported with modifications ([36]). The fluorescence emission spectra (λem = 400–600 nm) of the probes were recorded in a quartz cuvette at 37°C, at a total stand concentration 5 μM in a buffer of 10 mM sodium phosphate buffer (pH 7.4) containing 150 mM NaCl and 20 mM MgCl2. An average of five scans was recorded. Background fluorescence spectra were acquired after the probe has been incubated for 30 min at 37°C. For determination of fluorescence quantum yields of the m^5C-probes, see Supplementary Data.
# The fluorescence quantum yields (ΦF) of pyrene (Py)-labelled DNA probes 11a-c were determined as previously described.7,11 UV absorption of the probes λex 340 nm was measured on a Cary-300 UV-Visible spectrophotometer (Varian Inc.) from 0.1 to 0.03 absorbance units in 0.01 increments. The fluorescence emission spectra were immediately measured afterwards in a Cary Eclipse (Varian Inc.) fluorescent spectrophotometer with an excitation wavelength of 340 nm. Pyrenebutanoic acid (PBA) in methanol was used as a reference, and was calculated using the equation below. The reported quantum yields are an average of three measurements within ±10%. […]
# ΦF(PBA) is the cross-calibrated value for the fluorescence quantum emission yield of pyrenebutanoic acid (PBA) in MeOH. […]
# [6] = free fluorophore; cited from earlier work
# [7] = HeLa cells, 30 min pre-incubation with inhibitor, probe 9a 10 μM, flow cytometry, read-out: IC50 against NSUN2
# [8] = pH 7.4, 150 mM NaCl, 20 mM MgCl2
compound,measurement,setting,value
NC(CCS)C(=O)O (centres unmarked) [homocysteine],IC50,NSUN2 [1]; [7],> 400 µM
d(CG-m^5C-GCG)2 [7b],midpoint MgCl2 concentration for B-Z transition,[2],~ 10 mM
same,free energy of B-to-Z transition (ΔΔG°T),[3]; ΔG°310 of 7b (20 mM MgCl2) vs 7b* (no MgCl2),~1.5 kcal/mol
Nc1ncnc2c1ncn2[C@@H]1O[C@H](CO)[C@@H](O)[C@H]1O [adenosine],IC50,DNMT3A,106 µM
same,IC50,NSUN2 [1]; [7],> 200 µM
r(CG-C-GCG)2 [1a],increase in duplex stability on m5C methylation (ΔΔG°310),[3]; [8],~0.8 kcal/mol
Nc1ncnc2c1ncn2[C@@H]1O[C@H](C[C@@H](N)CC[C@H](N)C(=O)O)[C@@H](O)[C@H]1O [sinefungin],effect of inhibitor on probe 9a fluorescence activation by NSUN2,NSUN2 [4],reduces significantly; also recorded: significant reduction in fluorescence intensity
same,IC50,DNMT3A,0.7 µM
same,IC50,NSUN2 [1],8.9 µM
"Nc1ncnc2c1ncn2[C@@H]1O[C@H](CSCC[C@H](N)C(=O)O)[C@@H](O)[C@H]1O [SAH, S-adenosyl-L-homocysteine]",IC50,NSUN2 [1]; [7],3.1 µM
d(CG-C-GCG)2 [7a],duplex stabilisation by m5C (ΔΔG°310 per m5C),[3]; absence of MgCl2,0.5 kcal/mol per m5C
same,increase in melting temperature (Tm) per m5C,[3]; absence of MgCl2,1.7 °C per m5C
same,ΔΔH° 7a→7b,[3]; [8],7.3 kcal/mol
same,ΔΔS° 7a→7b,[3]; [8],31.6 cal/mol/K
same,increase in duplex stability on m5C methylation (ΔΔG°310),[3]; [8],2.5 kcal/mol
"O=C(O)CCCc1ccc2ccc3cccc4ccc1c2c34 [PBA, Pyrenebutanoic acid]",fluorescence quantum yield,[5],0.061
"O=c1nc2[nH]c(-c3ccccc3)cc2c[nH]1 [^pC, 6-phenylpyrrolocytosine]",quantum yield (ΦF),[6],0.31
